The subject of one series is IRS-2. The series is described as follows: Tyrosine phosphorylation of IRS-2 in Fao hepatoma cells, TNF-α induced 'insulin resistance'. It counts as cell-based. Particulars: for Reversal of TNF-α induced 'insulin resistance': doses known to have potent biological effects, cells not restated; for Tyrosine-phosphorylation of IRS-2: Fao hepatoma cells.
The subject of the next series is IR β-subunit. The series is described as follows: Insulin-stimulated tyrosine phosphorylation of IR in 3T3-L1 adipocytes made 'insulin resistant'. It counts as cell-based. Particulars: 3T3-L1 adipocytes. The procedure: (§1) Culture cells were used as follows to investigate the mechanisms relating to salicylate treatment to the in vivo reversal of insulin resistance. TNF-α treatment of 3T3-L1 adipocytes induced ‘insulin resistance’, as judged by significant decreases in insulin-stimulated tyrosine phosphorylation of IR β-subunit (42±11%) and IRS-1 (37±9%). TNF-α mediated ‘insulin resistance’ was reversed by pretreatment with high-dose (5 mM) aspirin. IR and IRS-1 phosphorylation levels were restored to 126±24% and 136±35%, respectively, compared to untreated controls; IR and IRS-1 protein levels were unchanged in TNF-α and aspirin-treated cells. TNF-α activates a cascade of adapters and kinases, including TRADD, RIP, TRAF2, and TAB1, which act upstream of JNK, p38 MAPK, and the IKK complex. Okadaic acid and calyculin A, two phosphatase inhibitors, also activate IKKβ (DiDonato et al. (1997) Nature 388:548; Harhaj & Sun (1997) J Biol Chem 272:5409), but without activating upstream elements in the TNF-α signaling cascade. Okadaic acid and calyculin A also induce ‘insulin resistance’ in isolated tissues and cultured cells (Robinson et al (1993) Am J Physiol 265:E36; Paz et al (1997) J. Biol Chem 272:29911). Therefore, it was determined whether aspirin would reverse ‘insulin resistance’ caused by these inhibitors. Marked reductions in insulin-stimulated IR (29±12%) and IRS-1 (16±2%) tyrosine-phosphorylation were prevented by incubating the cells with high-dose aspirin (109±15% and 93±25%, respectively).
(§2) Hyperglycemia- and hyperinsulinemia-induced insulin resistance in diabetic subjects can be mimicked in cell culture by incubation with high concentrations of glucose and insulin. Potential mechanisms include glucose-induced activation of PKC, which can activate IKK. […] Concurrent treatment with aspirin restored IR (107±23%) and IRS-1 (90±23%) tyrosine-phosphorylation to levels seen in cells incubated at 5.5 mM glucose. […] Protein levels were restored by concurrent treatment with aspirin. Serine phosphorylation of IκB leads to ubiquitination and proteosome-mediated degradation. IRS proteins may be degraded by a similar route and in both cases, downregulation was inhibited by aspirin.

The next series relates to IR. Briefly: Insulin-stimulated IR activation in untransfected 293 cells. It counts as cell-based. Particulars: TNF-α treatment. An excerpt: (§3) However, TNF-α is a potential mediator of acquired insulin resistance (Lang et al. (1992) Endocrinology 130:43; Feinstein et al. (1993) J Biol Chem 268:26055; Hotamisligil et al. (1993) Science 259:87; Hotamisligil et al. (1994) J Clin Invest 94:1543). TNF-α activates the IKK complex. TNF-α treatment of untransfected 293 cells reduced insulin-stimulated IR activation to 29±2% of untreated controls. Expression of kinase deficient, dominant inhibitory IKKα(K44A) or IKKβ(K44A) reversed TNF-α-inhibited IR activation. In fact, dominant-inhibitory IKKβ caused a 60% increase in insulin-stimulated IR tyrosine-phosphorylation over controls, whether or not cells had been treated with TNF-α. […] There is in vivo support for this, as well.

In a further series the test system is AKT. The series is described as follows: AKT activation in 293 cells. It counts as cell-based. Particulars: TNF-α treatment.
Text: as §3

Series [1] deals with IRS-1. The series is described as follows: Insulin-stimulated tyrosine phosphorylation of IRS-1 in 3T3-L1 adipocytes made 'insulin resistant'. Particulars: 3T3-L1 adipocytes, TNF-α treatment alone. It counts as cell-based. On the procedure:
as §1, §2

The subject of series [2] is IKKβ. Particulars: without activating upstream elements in the TNF-α signaling cascade; cited from earlier work.
The test system of series [3] is isolated tissues and cultured cells. Particulars: cited from earlier work.
The conditions of series [4]: 120 mg/kg/day continuous subcutaneous infusion. An excerpt:
(§4) Ob/ob mice are leptin deficient.

Another series relates to Insulin receptor (IR). The series is described as follows: Insulin receptor tyrosine autophosphorylation in tissues from treated Zucker rats. It counts as in vivo, rat. Particulars: liver and muscle of treated Zucker rats vs untreated. The procedure: (§5) Tissues were isolated from treated animals and insulin signaling proteins were analyzed. […] A cascade consisting of insulin receptor (IR), insulin-receptor substrate (IRS) proteins, PI 3-kinase and 3-phosphoinositide-dependent protein kinase-1 (PDK1), is required for maintenance of metabolic homeostasis.

The test system of a further series is AKT kinase. The series is described as follows: Insulin-stimulated AKT phosphorylation in tissues from treated Zucker rats. It counts as in vivo, rat. Particulars: liver and muscle of treated Zucker rats vs untreated. The procedure: as §5
For a further series, the system named is Zucker fa/fa rats. The series is described as follows: Effects of high-dose salicylates in Zucker fa/fa rats (GTT, ITT, serum lipids, ALT). Particulars: Zucker fa/fa rats, 120 mg/kg/day.
Text: as §4

Series [5] relates to IRS-1. The series is described as follows: Electrophoretic mobility of IRS-1 from livers of treated animals. It counts as in vivo. Particulars: animal livers; suggests decrease in Ser/Thr phosphorylation. The text has this: In cultured cells, IRS proteins are especially prone to phosphorylation on serine and threonine residues, which opposes the effect of tyrosine phosphorylation by inhibiting signaling.

The next series deals with ob/ob mice. Particulars: ob/ob mice, 120 mg/kg/day.
The target in series [6] is T1, IKKβ (Homo sapiens, UniProt O14920).
T1 sequence (O14920 1-756): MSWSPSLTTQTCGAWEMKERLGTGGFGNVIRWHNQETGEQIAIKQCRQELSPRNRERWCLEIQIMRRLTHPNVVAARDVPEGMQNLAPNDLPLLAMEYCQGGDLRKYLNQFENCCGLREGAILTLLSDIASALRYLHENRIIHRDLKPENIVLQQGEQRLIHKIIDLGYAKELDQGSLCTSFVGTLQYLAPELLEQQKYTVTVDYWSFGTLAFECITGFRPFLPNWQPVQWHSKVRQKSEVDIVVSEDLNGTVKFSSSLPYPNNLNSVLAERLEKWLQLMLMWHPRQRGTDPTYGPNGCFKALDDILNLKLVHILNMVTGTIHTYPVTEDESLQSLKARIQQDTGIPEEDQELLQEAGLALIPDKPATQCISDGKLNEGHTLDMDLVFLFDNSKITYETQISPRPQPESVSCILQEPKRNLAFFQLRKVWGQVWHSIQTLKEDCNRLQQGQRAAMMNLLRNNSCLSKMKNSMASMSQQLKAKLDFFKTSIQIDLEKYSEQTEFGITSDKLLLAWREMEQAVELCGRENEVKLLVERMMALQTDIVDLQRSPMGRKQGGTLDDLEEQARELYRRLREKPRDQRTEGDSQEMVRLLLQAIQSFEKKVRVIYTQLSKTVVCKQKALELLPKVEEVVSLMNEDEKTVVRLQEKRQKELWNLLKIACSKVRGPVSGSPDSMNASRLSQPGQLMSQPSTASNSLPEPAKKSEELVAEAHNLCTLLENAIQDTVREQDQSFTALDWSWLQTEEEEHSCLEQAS
Particulars: Yin et al (1998); cited from earlier work.

These results are taken from US6630312B2, “Method for identifying compounds for treatment of insulin resistance” (Joslin Diabetes Center, Inc., priority 1999, dated 2003).

Protocol for ob/ob mice: FIGS. 1A-H: In vivo effects of aspirin in Zucker fatty rats and ob/ob mice. (panels A-F) Twelve-week-old male Zucker rats (Harlan) and (panels G,H) eight-week-old ob/ob and ob/+ mice (Jackson Labs) were given free access to food and water. […] For glucose tolerance tests (GTT), glucose (2.0 g/kg) was administered by oral gavage (rats) or intraperitoneal injection (mice) after an overnight fast. (panels A,C) Blood glucose and (panels B,D) serum insulin levels were determined during oral glucose tolerance tests in (panels A,B) six Zucker fa/fa rats and (panels C,D) six fa/+ rats. For insulin tolerance tests (ITT) in (panel E) six Zucker fa/fa rats, insulin (2.0 U/kg) was injected intraperitoneally after an overnight fast. (panel F) Cholesterol (Chol), triglyceride (TG), long chain free fatty acid (FFA), and liver alanine aminotransferase (ALT) levels were measured in sera from fasting Zucker fa/fa rats. Glucose tolerance tests were conducted with (panel G) ten ob/ob mice and (panel H) ten ob/+ mice. Data are mean±SEM values; some SEM values are within the area of the symbols.
A determination of the effects of high-dose salicylates on obese rodents with severe insulin resistance was performed as follows. Twelve-week-old male Zucker fa/fa rats and eight-week-old male ob/ob mice were treated for 3-4 weeks with 120 mg/kg/day of aspirin or salicylate, administered by continuous subcutaneous infusion; this dose is roughly equivalent to 5-10 g/day in humans.

Take `CC(C)Cc1ccc(C(C)C(=O)O)cc1` (stereo not shown) [ibuprofen]: the “Reversal of TNF-α induced 'insulin resistance'” value (“Reversal” below) in the series on IRS-2 is “Neither ibuprofen nor naproxen, two NSAID inhibitors of COX1 and COX2, reversed”.
With TNF-α, the “IR and IRS-1 protein levels” value in the series on IR β-subunit (TNF-α and aspirin-treated cells) was “unchanged”. Besides, in the series with IR β-subunit (TNF-α treatment alone), the “Insulin-stimulated tyrosine phosphorylation of IR β-subunit” value was determined as 42±11%. In addition, in the series with IR, the “Insulin-stimulated IR activation, of untreated controls” value was 29±2%. Also, the “Tyrosine-phosphorylation of IRS-2” value in the series with IRS-2 (TNF-α treatment alone) amounted to 39±9%. The compound further gave an AKT activation in the series on AKT of 18±15%. In addition, in the series on IRS-1 [1], the “Insulin-stimulated tyrosine phosphorylation of IRS-1” value stood at 37±9%.
Take `COC[C@@H]([C@H](O)[C@H](O)C(=O)NCC[C@H](C)c1nc(/C=C/C[C@@H]2O[C@]3(C[C@@H](O)[C@@H]2C)O[C@H]([C@H](C[C@H](O)[C@H](C)[C@H](O)[C@H](C)/C=C(C)/C(C)=C/C=C/C(C)=C\C#N)OC)[C@H](OP(=O)(O)O)C3(C)C)co1)N(C)C` [calyculin A]: the “Effect on IKKβ” value in the series with IKKβ [2] is “activate”. The “'Insulin resistance' in isolated tissues and cultured cells” value in series [3] was “induce”.
Turning to `COc1ccc2cc([C@H](C)C(=O)O)ccc2c1` [naproxen], in the series with IRS-2, the “Reversal” value was “Neither ibuprofen nor naproxen, two NSAID inhibitors of COX1 and COX2, reversed”.
Take `O=C([O-])c1ccccc1O.[Na+]` [salicylate, sodium salicylate]: in series [4], the “Serum salicylate levels, mean” value was 0.81 ± 0.25 mM and the “Serum salicylate levels, range” value lay within 0.3 to 1.3 mM. In addition, the “Insulin receptor (IR) tyrosine autophosphorylation” value in the series with Insulin receptor (IR) is “Significantly increased stimulation”. Besides, the “Insulin-stimulated AKT phosphorylation” value with AKT kinase is “increased”. For the same compound, the “Tyrosine-phosphorylation of IRS-2” value in the series on IRS-2 (TNF-α plus drug) turned out to be 89±8%. In addition, the “Food intake, blood chemistry, or body weight” value in the series with Zucker fa/fa rats is given as “Neither aspirin nor salicylate affected”. Moreover, the “Electrophoretic mobility of IRS-1” value in the series with IRS-1 [5] is reported as “increased”. In the series with ob/ob mice, the “Food intake, blood chemistry, or body weight” value is on record as “Neither aspirin nor salicylate affected”. For the same compound, the “Inhibition of IKKβ, relative potency” value at IKKβ [6] is given as “equipotent inhibitors”.
Regarding `C=C1[C@@H](O)[C@@H]2O[C@]3(CC[C@H](/C=C/[C@@H](C)[C@@H]4CC(C)=C[C@@]5(O[C@H](C[C@@](C)(O)C(=O)O)CC[C@H]5O)O4)O3)CC[C@H]2O[C@@H]1[C@@H](O)C[C@H](C)[C@H]1O[C@@]2(CCCCO2)CC[C@H]1C` [Okadaic acid], in the series on IKKβ [2], the “Effect on IKKβ” value is given as “activate”. Besides, the “'Insulin resistance' in isolated tissues and cultured cells” value in [3] is recorded as “induce”.
Consider `CS(=O)(=O)Nc1ccc([N+](=O)[O-])cc1OC1CCCCC1` [NS-398], for which the “Reversal” value with IRS-2 is listed as “no effect”.
